Experimental data published in ChEMBL document CHEMBL1147593, “Design and synthesis of benzoxazole derivatives as novel melatoninergic ligands” (Bioorg Med Chem Lett, 2004).

Columns and labels:
[1] = biological target: T1, Melatonin receptor type 1B (Homo sapiens, UniProt P49286); assay: Binding of 2-[125I]iodomelatonin to membrane preparations of NIH3T3 cells stably expressing human Melatonin receptor type 1B; format: cell membranes
T1 sequence (P49286 whole entry): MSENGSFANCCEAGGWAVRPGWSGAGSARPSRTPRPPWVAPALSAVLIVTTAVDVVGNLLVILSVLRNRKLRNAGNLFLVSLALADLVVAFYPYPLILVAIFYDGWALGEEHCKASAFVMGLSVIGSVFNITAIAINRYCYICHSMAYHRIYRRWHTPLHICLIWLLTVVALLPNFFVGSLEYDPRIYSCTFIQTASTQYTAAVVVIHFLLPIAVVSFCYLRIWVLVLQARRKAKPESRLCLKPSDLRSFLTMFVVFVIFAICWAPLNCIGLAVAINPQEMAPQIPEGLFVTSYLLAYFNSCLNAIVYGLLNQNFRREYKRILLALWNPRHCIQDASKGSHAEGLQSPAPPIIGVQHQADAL

[2] = biological target: Melatonin receptor type 1A (Homo sapiens, UniProt P48039); assay: Binding of 2-[125I]iodomelatonin to membrane preparations of NIH3T3 cells stably expressing human Melatonin receptor type 1A; format: cell membranes
Melatonin receptor type 1A, sequence (P48039 whole entry): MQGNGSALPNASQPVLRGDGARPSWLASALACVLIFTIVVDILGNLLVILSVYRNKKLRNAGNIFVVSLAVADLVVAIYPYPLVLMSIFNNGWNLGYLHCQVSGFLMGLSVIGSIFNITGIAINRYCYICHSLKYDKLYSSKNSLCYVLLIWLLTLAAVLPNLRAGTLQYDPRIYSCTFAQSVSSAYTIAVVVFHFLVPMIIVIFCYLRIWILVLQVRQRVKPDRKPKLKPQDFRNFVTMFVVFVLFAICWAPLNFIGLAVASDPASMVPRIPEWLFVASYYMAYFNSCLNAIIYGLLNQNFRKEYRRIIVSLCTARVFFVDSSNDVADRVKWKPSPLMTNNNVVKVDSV

| SMILES | Ki [1] | Ki [2] |
| --- | --- | --- |
| O=C(NC[C@@H]1C[C@H]1c1cccc2nc(CCCCc3ccccc3)oc12)C1CC1 | 0.48 nM | 0.05 nM |
| CCNC(=O)NC[C@@H]1C[C@H]1c1cccc2nc(C(C)C)oc12 | 12.6 nM | 11.8 nM |
| CCC(=O)NC[C@@H]1C[C@H]1c1cccc2nc(CC)oc12 | 0.44 nM | 0.05 nM |
| CC(C)C(=O)NC[C@@H]1C[C@H]1c1cccc2nc(C(C)C)oc12 | 2.5 nM | 1.3 nM |
| CC(=O)NC[C@@H]1C[C@H]1c1cccc2nc(CCCCc3ccccc3)oc12 | 0.37 nM | 0.05 nM |
| CCc1nc2cccc([C@@H]3C[C@H]3CNC(=O)C(C)C)c2o1 | 0.75 nM | 0.2 nM |
| CCc1nc2cccc([C@@H]3C[C@H]3CNC(C)=O)c2o1 | 0.88 nM | 0.35 nM |
| CCCC(=O)NC[C@@H]1C[C@H]1c1cccc2nc(CC)oc12 | 0.33 nM | 0.05 nM |
| CCCc1nc2cccc([C@@H]3C[C@H]3CNC(=O)NCC)c2o1 | 1 nM | 3.5 nM |

Now those with a lower Ki [1], led by results:

| Ki [1] | Ki [2] | SMILES |
| --- | --- | --- |
| 0.04 nM | 0.94 nM | CCCC(=O)NC[C@@H]1C[C@H]1c1cccc2nc(CCC)oc12 |
| 0.28 nM | 4.9 nM | CCCc1nc2cccc([C@@H]3C[C@H]3CNC(=O)C(C)C)c2o1 |
| 0.32 nM | 4.9 nM | CCC(=O)NC[C@@H]1C[C@H]1c1cccc2nc(C(C)C)oc12 |
| 0.14 nM | 0.18 nM | CCCc1nc2cccc([C@@H]3C[C@H]3CNC(=O)C3CC3)c2o1 |
| 0.07 nM | 0.05 nM | CCC(=O)NC[C@@H]1C[C@H]1c1cccc2nc(CCCCc3ccccc3)oc12 |
| 0.19 nM | 0.05 nM | CCc1nc2cccc([C@@H]3C[C@H]3CNC(=O)C3CC3)c2o1 |
| 0.24 nM | 0.05 nM | CCCC(=O)NC[C@@H]1C[C@H]1c1cccc2nc(CCCCc3ccccc3)oc12 |
